Among the data in patent US6716986B2, “Sulfuric acid mono-[3-({1-[2-(4-fluoro-phenyl)-ethyl]-piperidin-4-YL}-hydroxy-methyl)-2-methoxy-phenyl]ester” (Aventis Pharmaceuticals Inc., priority 1999, dated 2004) are Papp, Kd and Ki values, retold here.

A short description of series [1]: In vitro BBMEC permeability (transport studies). Type of series: in vitro ADME. To be noted: bovine, mean±standard deviation. As to the method: The procedure was performed according to: Kenneth L. Audus et al., Brain Microvessel Endothelial Cell Culture System (Chapter 13) pp 239-258. In Models for Assessing Drug Absorption and Metabolism, Ronald T. Borchardt et al. eds., Plenum Press, New York 1996, incorporated herein by reference.

In series [2] the target is T1, human 5-HT2A (Homo sapiens, UniProt P28223).
T1 construct: expressed in transfected cells
T1 sequence (P28223 whole entry): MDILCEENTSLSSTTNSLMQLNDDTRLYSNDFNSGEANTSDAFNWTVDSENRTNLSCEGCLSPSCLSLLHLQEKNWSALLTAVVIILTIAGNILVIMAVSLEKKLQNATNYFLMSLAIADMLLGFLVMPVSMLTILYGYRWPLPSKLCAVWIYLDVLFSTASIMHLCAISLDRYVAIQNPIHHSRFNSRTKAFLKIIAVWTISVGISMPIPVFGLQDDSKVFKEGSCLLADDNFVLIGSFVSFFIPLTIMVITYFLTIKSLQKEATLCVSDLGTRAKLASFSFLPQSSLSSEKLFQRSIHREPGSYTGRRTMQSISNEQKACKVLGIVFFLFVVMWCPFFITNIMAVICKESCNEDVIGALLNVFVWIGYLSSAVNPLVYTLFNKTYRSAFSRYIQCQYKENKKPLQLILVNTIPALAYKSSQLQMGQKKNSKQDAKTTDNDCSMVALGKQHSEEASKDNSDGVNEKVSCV
Kind of series: In vitro inhibition of [3H]-ligand binding to human 5-HT2A receptor. As to the method:
Cells stably expressing the human homologs of the receptors (dopamine D2L, serotonin 5HT2A and 5HT2C, α1A adrenergic; cloned and expressed at Hoechst Marion Roussel; Grandy et al., 1989; Monsma et al., 1993; Schwinn et al., 1995) were grown; cell membranes were prepared, and kept frozen until used (Kongsamut et al., 1996). The relevance of these binding sites has been extensively discussed in the literature (see for example: Carlsson & Carlsson, 1990; Creese et al., 1976; Gorman & Vargas, 1995; Meltzer et al., 1989). All binding parameters were optimized at Hoechst Marion Roussel; ligand Kds were determined using both saturation analysis (Scatchard) as well as kinetic analysis (association and dissociation rates). Each batch of membrane was validated by checking the ligand Kd, and rank order of potency of selected standard compounds. […]
Membranes were rapidly thawed and diluted to an appropriate concentration (between 20-150 μg protein/assay point depending on receptor expression level) in Tris buffer and homogenized. […] Microscint scintillation cocktail (40 μl) were added and the filter plates were counted in a Packard Top Count scintillation counter. Data were analyzed to determine Ki's for compounds of interest (Prusoff & Cheng, […]).Table: Receptor Binding Parameters.

Series [3] addresses T2, human D2L (Homo sapiens, UniProt P14416).
T2 construct: expressed in transfected cells
Kind of series: In vitro inhibition of [3H]-ligand binding to human D2L receptor. The settings on record: [3H]N-methyl spiperone, CHO cell membranes, 37° C.; read-out: D2 (Ki μM). As to the method: (§1) Cells stably expressing the human homologs of the receptors (dopamine D2L, serotonin 5HT2A and 5HT2C, α1A adrenergic; cloned and expressed at Hoechst Marion Roussel; Grandy et al., 1989; Monsma et al., 1993; Schwinn et al., 1995) were grown; cell membranes were prepared, and kept frozen until used (Kongsamut et al., 1996). […] All binding parameters were optimized at Hoechst Marion Roussel; ligand Kds were determined using both saturation analysis (Scatchard) as well as kinetic analysis (association and dissociation rates). Each batch of membrane was validated by checking the ligand Kd, and rank order of potency of selected standard compounds. Assays for the serotonin 5HT2A and dopamine D2L receptors were conducted at 37° C. in a Tris buffer containing salts (50 mM Tris Buffer, pH 7.7; 120 mM NaCl; 5 mM KCl; 2 mM CaCl2; 1 mM MgCl2), while the serotonin 5-HT2C and α1A adrenergic receptor assays used a different buffer without salts (50 mM Tris, 4 mM CaCl2 and 1% ascorbate, pH 7.4). […]
(§2) Membranes were rapidly thawed and diluted to an appropriate concentration (between 20-150 μg protein/assay point depending on receptor expression level) in Tris buffer and homogenized. […] Microscint scintillation cocktail (40 μl) were added and the filter plates were counted in a Packard Top Count scintillation counter.

For series [4], the target named is T3, human 5-HT2c (Homo sapiens, UniProt P28335).
T3 construct: expressed in transfected cells
T3 sequence (P28335 33-458): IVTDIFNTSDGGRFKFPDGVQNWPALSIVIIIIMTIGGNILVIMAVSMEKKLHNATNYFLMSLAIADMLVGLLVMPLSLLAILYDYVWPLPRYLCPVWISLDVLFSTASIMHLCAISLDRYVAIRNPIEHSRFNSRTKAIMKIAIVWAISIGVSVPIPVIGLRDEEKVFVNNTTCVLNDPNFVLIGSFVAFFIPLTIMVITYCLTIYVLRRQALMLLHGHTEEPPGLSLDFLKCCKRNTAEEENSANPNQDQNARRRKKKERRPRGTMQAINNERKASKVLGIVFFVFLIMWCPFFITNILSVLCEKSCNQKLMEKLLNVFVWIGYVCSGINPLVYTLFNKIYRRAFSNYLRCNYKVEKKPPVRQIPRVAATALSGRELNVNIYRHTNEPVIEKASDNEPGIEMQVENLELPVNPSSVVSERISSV
Kind of series: In vitro inhibition of [3H]-ligand binding to human 5-HT2C receptor. The settings on record: [3H]mesulergine, CHO cell membranes. As to the method:
as §1, §2

Series [5] addresses T4, human α1A (Homo sapiens, UniProt P35348).
T4 construct: expressed in transfected cells
T4 sequence (P35348 1-466): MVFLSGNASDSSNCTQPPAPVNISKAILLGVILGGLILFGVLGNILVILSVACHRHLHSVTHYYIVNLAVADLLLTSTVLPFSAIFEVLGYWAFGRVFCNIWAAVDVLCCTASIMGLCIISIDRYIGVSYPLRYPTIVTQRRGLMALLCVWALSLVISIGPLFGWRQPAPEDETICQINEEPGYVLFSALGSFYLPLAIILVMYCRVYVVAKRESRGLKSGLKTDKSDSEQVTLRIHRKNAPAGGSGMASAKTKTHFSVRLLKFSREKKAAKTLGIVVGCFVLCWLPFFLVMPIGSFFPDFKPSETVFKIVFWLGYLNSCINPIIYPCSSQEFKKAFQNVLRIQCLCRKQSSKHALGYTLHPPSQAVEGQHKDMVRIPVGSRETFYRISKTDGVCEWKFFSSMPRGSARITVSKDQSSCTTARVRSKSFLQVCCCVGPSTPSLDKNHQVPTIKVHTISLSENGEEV
Kind of series: In vitro inhibition of [3H]-ligand binding to human α1A adrenergic receptor. The settings on record: [3H]prazosin, CHO cell membranes. As to the method:
as §1, §2

As usually defined, the Papp is a coefficient for how fast a substance crosses the barrier. Read a low Papp as slow passage. One may read the Kd as a measure of binding affinity in units of concentration. The term Ki denotes the dissociation constant of the complex between target and ligand, obtained from inhibition or displacement.

T2 sequence (P14416 whole entry): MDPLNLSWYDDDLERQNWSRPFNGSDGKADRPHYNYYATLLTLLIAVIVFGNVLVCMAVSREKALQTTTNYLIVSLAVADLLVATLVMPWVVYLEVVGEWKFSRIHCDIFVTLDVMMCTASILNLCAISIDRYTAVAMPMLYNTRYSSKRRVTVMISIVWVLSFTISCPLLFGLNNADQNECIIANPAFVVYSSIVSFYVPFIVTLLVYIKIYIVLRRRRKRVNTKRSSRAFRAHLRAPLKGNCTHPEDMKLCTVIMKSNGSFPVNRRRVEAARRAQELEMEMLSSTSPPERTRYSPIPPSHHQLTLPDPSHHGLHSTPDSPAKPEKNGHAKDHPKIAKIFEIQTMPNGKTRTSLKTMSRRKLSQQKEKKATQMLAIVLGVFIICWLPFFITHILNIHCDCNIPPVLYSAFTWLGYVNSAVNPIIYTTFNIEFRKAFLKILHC

Turning to `OC[C@@H](O)[C@@H](O)[C@H](O)[C@H](O)CO` [Mannitol (standard), Mannitol], the Papp at 5.4 μM in series [1] worked out at 27.6 ± 2.3 ×10⁻⁶ cm/s.
`CN1CN(c2ccccc2)C2(CCN(CCCC(=O)c3ccc(F)cc3)CC2)C1=O` [[^3H]N-methyl spiperone, reference compound]: the Kd in series [2] (human 5-HT2A, BHK, saturation (Scatchard) and kinetic analysis) was determined as 0.00092 µM.
For the compound `COc1c(OS(=O)(=O)O)cccc1C(O)C1CCN(CCc2ccc(F)cc2)CC1` (stereo not drawn) [Example 1H, Sulfuric acid mono-(+)-[3-(-{1-[2-(4-fluoro-phenyl)-ethyl]-piperidin-4-yl}-hydroxy-methyl)-2-methoxy-phenyl] ester], the Ki in series [2] ([3H]N-methyl spiperone, BHK cell membranes, 37° C.) is 0.16 µM; in series [3], greater than 1 µM; in series [4], greater than 1 µM; in series [5], greater than 1 µM.
